In PubChem BioAssay AID192 (DTP/NCI, 2004):
Several values for one entry are separate records, joined by “and”; a condition that tells them apart may be missing. Identical values can stand only once. Toxic doses and inconclusive results are not listed. The calls were made as follows: active = survival T/C of 150% or more; inactive = T/C below 125% in these data.

Tested on: BDF1 mice, B16 melanoma ip, median survival T/C
Assay: NCI In Vivo Anticancer Drug Screen. Data for tumor model B16 Melanoma (intraperitoneal) in B6D2F1 (BDF1) mice
Conditions: endpoint: median survival time, higher = longer survival
Summary of the method: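 Transplantable tumor model; survival or tumor size measured; reported as T/C, treated over vehicle control.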

[1] = dose: 12.5 mg/kg/injection, schedule: Q01DX009 (ip), vehicle: saline with Tween-80
[2] = dose: 25.0 mg/kg/injection, schedule: Q01DX009 (ip), vehicle: saline with Tween-80
[3] = dose: 50.0 mg/kg/injection, schedule: Q01DX009 (ip), vehicle: saline with Tween-80
[4] = dose: 100.0 mg/kg/injection, schedule: Q01DX009 (ip), vehicle: saline with Tween-80
[5] = dose: 200.0 mg/kg/injection, schedule: Q01DX009 (ip), vehicle: saline with Tween-80
[6] = dose: 100.0 mg/kg/injection, schedule: Q01DX009 (ip), vehicle: Klucel (hydroxypropylcellulose) (HPC)
[7] = dose: 200.0 mg/kg/injection, schedule: Q01DX009 (ip), vehicle: Klucel (hydroxypropylcellulose) (HPC)
[8] = dose: 400.0 mg/kg/injection, schedule: Q01DX009 (ip), vehicle: Klucel (hydroxypropylcellulose) (HPC)
[9] = dose: 12.5 mg/kg/injection, schedule: Q01DX009 (ip), vehicle: saline
[10] = dose: 50.0 mg/kg/injection, schedule: Q01DX009 (ip), vehicle: Klucel (hydroxypropylcellulose) (HPC)

Measured: T/C

CC(C)=CC1C(C(=O)OCc2ccc(C)cc2C)C1(C)C (stereo not given)
inactive: dose: 6.25 mg/kg/injection, schedule: Q01DX009 (ip), vehicle: saline with Tween-80 99 % of control | [1] 104 % of control | [2] 110 % of control | [3] 103 % of control

CCCCCCCC(=O)CCCCC
inactive: dose: 50.0 mg/kg/injection, schedule: Q01DX009 (ip), vehicle: other 90 % of control | dose: 100.0 mg/kg/injection, schedule: Q01DX009 (ip), vehicle: other 94 % of control | dose: 200.0 mg/kg/injection, schedule: Q01DX009 (ip), vehicle: other 100 % of control

NC(=O)c1cn(C2OC(CO)C(O)C2O)c2ncnc(N)c12 (stereo not given)
inactive: dose: 0.09 mg/kg/injection, schedule: Q01DX009 (ip), vehicle: saline 100 % of control | dose: 0.12 mg/kg/injection, schedule: Q01DX009 (ip), vehicle: water 93 % of control | dose: 0.13 mg/kg/injection, schedule: Q01DX009 (ip), vehicle: saline 97 % of control | dose: 0.19 mg/kg/injection, schedule: Q01DX009 (ip), vehicle: saline 105 % of control | dose: 0.25 mg/kg/injection, schedule: Q01DX009 (ip), vehicle: saline 102 % of control | dose: 0.25 mg/kg/injection, schedule: Q01DX009 (ip), vehicle: water 106 % of control | dose: 0.38 mg/kg/injection, schedule: Q01DX009 (ip), vehicle: saline 105 % of control | dose: 0.5 mg/kg/injection, schedule: Q01DX009 (ip), vehicle: saline 102 % of control | dose: 0.75 mg/kg/injection, schedule: Q01DX009 (ip), vehicle: saline 114 % of control

Cc1ccc(NC(=O)c2ccccc2)c(C)c1
inactive: [3] 95 % of control | dose: 50.0 mg/kg/injection, schedule: Q04DX003 (ip), vehicle: saline with Tween-80 97 % of control | [4] 105 % of control | dose: 100.0 mg/kg/injection, schedule: Q04DX003 (ip), vehicle: saline with Tween-80 100 % of control | [5] 92 % of control | dose: 200.0 mg/kg/injection, schedule: Q04DX003 (ip), vehicle: saline with Tween-80 90 % of control

CC(=O)Nc1cccc([N+](=O)[O-])c1
inactive: [3] 109 % of control | [4] 97 % of control | [5] 97 % of control

CCOc1ccccc1NC(=O)c1cccc(C(=O)Nc2ccccc2OCC)c1
inactive: [6] 105 % of control | [7] 94 % of control | [8] 94 % of control

CCCC1(CCC)CN(CO)C1=O
inactive: [9] 100 % of control | dose: 25.0 mg/kg/injection, schedule: Q01DX009 (ip), vehicle: saline 100 % of control | dose: 50.0 mg/kg/injection, schedule: Q01DX009 (ip), vehicle: saline 106 % of control | dose: 100.0 mg/kg/injection, schedule: Q01DX009 (ip), vehicle: saline 111 % of control | dose: 200.0 mg/kg/injection, schedule: Q04DX003 (ip), vehicle: saline 91 % of control

Nc1ncnc2c1c(C(=O)O)cn2C1OC(CO)C(O)C1O (stereo not given)
inactive: [1] 91 % of control | [2] 93 % of control | [3] 96 % of control

CC1(C)COCN1COC1CCCCC1
inactive: [1] 100 % of control | [2] 105 % of control and 115 % of control | [3] 105 % of control and 119 % of control | [5] 110 % of control

CN1C2CCC1CC(OC1c3ccccc3CCc3ccccc31)C2 (stereo not given)
inactive: dose: 3.12 mg/kg/injection, schedule: Q01DX009 (ip), vehicle: saline 90 % of control | dose: 6.25 mg/kg/injection, schedule: Q01DX009 (ip), vehicle: saline 97 % of control | [9] 97 % of control

CC[C@@H]1C[C@H]2CC3c4[nH]c5ccccc5c4CCN(C2)C31
inactive: dose: 5.0 mg/kg/injection, schedule: Q01DX009 (ip), vehicle: saline with Tween-80 110 % of control | dose: 10.0 mg/kg/injection, schedule: Q01DX009 (ip), vehicle: saline with Tween-80 107 % of control | dose: 20.0 mg/kg/injection, schedule: Q01DX009 (ip), vehicle: saline with Tween-80 97 % of control

COc1cc2ccc(CC(=O)NCc3ccccc3)cc2cc1OC
inactive: [4] 122 % of control | dose: 135.0 mg/kg/injection, schedule: Q01DX009 (ip), vehicle: Klucel (hydroxypropylcellulose) (HPC) 123 % of control | [7] 110 % of control

CCCCCCCCCCCCCCOC(=O)Cl
inactive: [10] 90 % of control | [6] 92 % of control | [7] 96 % of control | [8] 91 % of control

CCC(C)(C)c1ccc(O)c(C(C)(C)CC)c1
inactive: [6] 93 % of control | [7] 106 % of control | [8] 106 % of control

O=C(CCN1CCCCCCC1)c1cccc([N+](=O)[O-])c1
inactive: [10] 100 % of control | [6] 97 % of control

COC1C(O)=C2C(=O)OC(C)(O)/C=C/C=C\C=C/C=C/C(c3ccccc3)NC(=O)/C=C/C=C/C=C/C=C/C2(C)C1O (stereo not given)
inactive: dose: 0.39 mg/kg/injection, schedule: Q01DX009 (ip), vehicle: Klucel (hydroxypropylcellulose) (HPC) 103 % of control | dose: 0.78 mg/kg/injection, schedule: Q01DX009 (ip), vehicle: Klucel (hydroxypropylcellulose) (HPC) 104 % of control | dose: 1.56 mg/kg/injection, schedule: Q01DX009 (ip), vehicle: Klucel (hydroxypropylcellulose) (HPC) 96 % of control | dose: 1.56 mg/kg/injection, schedule: Q01DX009 (ip), vehicle: other 104 % of control | dose: 3.12 mg/kg/injection, schedule: Q01DX009 (ip), vehicle: Klucel (hydroxypropylcellulose) (HPC) 106 % of control | dose: 3.12 mg/kg/injection, schedule: Q01DX009 (ip), vehicle: other 103 % of control | dose: 6.25 mg/kg/injection, schedule: Q01DX009 (ip), vehicle: other 101 % of control | dose: 12.5 mg/kg/injection, schedule: Q01DX009 (ip), vehicle: other 97 % of control

COC1=C(N)C(=O)c2nc(-c3nc(C(=O)O)c(C)c(-c4ccc(OC)c(OC)c4O)c3N)ccc2C1=O
inactive: dose: 0.03 mg/kg/injection, schedule: Q01DX009 (ip), vehicle: saline 113 % of control | dose: 0.05 mg/kg/injection, schedule: Q01DX009 (ip), vehicle: saline 102 % of control | dose: 0.1 mg/kg/injection, schedule: Q01DX009 (ip), vehicle: saline 102 % of control | dose: 0.2 mg/kg/injection, schedule: Q01DX009 (ip), vehicle: saline 113 % of control | dose: 0.4 mg/kg/injection, schedule: Q01DX009 (ip), vehicle: saline 100 % of control | dose: 25.0 micrograms/kg/injection, schedule: Q01DX009 (ip), vehicle: saline 100 % of control | dose: 50.0 micrograms/kg/injection, schedule: Q01DX009 (ip), vehicle: saline 111 % of control | dose: 100.0 micrograms/kg/injection, schedule: Q01DX009 (ip), vehicle: saline 112 % of control | dose: 200.0 micrograms/kg/injection, schedule: Q01DX009 (ip), vehicle: saline 104 % of control

c1ccc(CC2NCCc3c2[nH]c2ccccc32)cc1 (stereo not given)
inactive: dose: 12.5 mg/kg/injection, schedule: Q01DX009 (ip), vehicle: Klucel (hydroxypropylcellulose) (HPC) 105 % of control | dose: 25.0 mg/kg/injection, schedule: Q01DX009 (ip), vehicle: Klucel (hydroxypropylcellulose) (HPC) 91 % of control and 95 % of control | [10] 86 % of control and 89 % of control | [6] 86 % of control | [7] 105 % of control
